Results from patent US20220235043A1, “SUBSTITUTED SULFONAMIDE PYRROLOPYRIDINES AS JAK INHIBITORS” (ACLARIS THERAPEUTICS, INC., priority 2019, published 2022).

Columns and labels:
[1] = system: IL-2 stimulated STAT5 phosphorylation on Tyr694 (JAK1/3); assay: JAK1/3 cellular target modulation: IL-2 stimulated phospho-STAT5 in human PBMC; type: cell-based; conditions: IL-2 25 ng/ml, read-out: IL2-STAT5 IC50
Method in brief: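 Thawed human PBMC (200,000/well) preincubated with compound 1 h at 37°C, then stimulated with IL-12 1.7 ng/ml for 25 min, IFNγ 10 ng/ml for 10 min, or IL-2 25 ng/ml for 5 min. Lysate phospho-STAT4 Tyr693 and phospho-STAT5 Tyr694 read by MSD; phospho-STAT1 Tyr701 by sandwich ELISA.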

[2] = molecular target: T1, Tyk-2 (Homo sapiens, UniProt P29597); assay: Tyk-2 enzyme activity assay (Thermo Fisher Selectscreen, Z-lyte); type: biochemical; conditions: read-out: Tyk-2 Inhibition IC50
T1 construct: purchased Thermo Fisher Scientific (SelectScreen service)
T1 sequence (P29597 whole entry): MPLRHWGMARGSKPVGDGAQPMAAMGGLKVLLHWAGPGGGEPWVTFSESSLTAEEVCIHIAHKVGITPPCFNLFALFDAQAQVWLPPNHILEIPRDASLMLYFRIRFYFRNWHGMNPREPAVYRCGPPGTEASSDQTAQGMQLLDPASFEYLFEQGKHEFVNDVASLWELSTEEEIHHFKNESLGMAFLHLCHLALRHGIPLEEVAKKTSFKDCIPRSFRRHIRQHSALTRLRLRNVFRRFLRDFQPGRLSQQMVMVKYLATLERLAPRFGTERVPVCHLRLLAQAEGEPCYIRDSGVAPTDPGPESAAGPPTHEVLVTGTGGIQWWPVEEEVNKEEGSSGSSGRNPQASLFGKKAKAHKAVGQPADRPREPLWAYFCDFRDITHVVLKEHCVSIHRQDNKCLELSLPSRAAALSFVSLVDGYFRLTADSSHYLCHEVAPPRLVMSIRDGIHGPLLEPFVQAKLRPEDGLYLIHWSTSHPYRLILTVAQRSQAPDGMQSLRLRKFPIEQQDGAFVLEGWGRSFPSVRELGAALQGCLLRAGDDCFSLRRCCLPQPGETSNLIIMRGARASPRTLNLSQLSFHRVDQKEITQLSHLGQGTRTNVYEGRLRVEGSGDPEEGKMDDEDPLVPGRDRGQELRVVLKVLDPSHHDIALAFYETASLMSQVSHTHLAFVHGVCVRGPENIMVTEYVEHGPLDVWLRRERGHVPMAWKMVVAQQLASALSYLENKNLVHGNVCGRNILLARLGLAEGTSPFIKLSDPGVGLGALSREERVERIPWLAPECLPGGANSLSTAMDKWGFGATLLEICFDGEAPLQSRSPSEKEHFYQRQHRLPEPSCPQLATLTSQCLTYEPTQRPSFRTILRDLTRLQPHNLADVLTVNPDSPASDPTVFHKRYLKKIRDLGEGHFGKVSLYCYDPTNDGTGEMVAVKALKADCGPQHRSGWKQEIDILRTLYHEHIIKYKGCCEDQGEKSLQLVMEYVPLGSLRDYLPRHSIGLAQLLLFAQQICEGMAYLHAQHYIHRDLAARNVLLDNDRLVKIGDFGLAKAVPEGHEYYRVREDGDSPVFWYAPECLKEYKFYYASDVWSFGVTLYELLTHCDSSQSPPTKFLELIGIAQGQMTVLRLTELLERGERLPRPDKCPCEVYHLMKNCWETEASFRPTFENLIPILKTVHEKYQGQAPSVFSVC
Method in brief: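 Z-lyte FRET assay with 3.75-15 ng TYK2 and 2 μM Tyr 03 peptide in 50 mM HEPES pH 7.0, 10 mM MgCl2, 1 mM EGTA, 0.01% BRIJ-35. Reaction ran one hour before development reagent was added. Compounds were tested in an 11-point dose-response; IC50 came from a 4-parameter logistic fit of emission ratio, normalised to no-enzyme and 2% DMSO vehicle controls.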

[3] = molecular target: T2, JAK1 (Homo sapiens, UniProt P23458); assay: JAK1 enzyme activity assay (Thermo Fisher Selectscreen, Z-lyte); type: biochemical; conditions: read-out: JAK1 Inhibition IC50
T2 construct: purchased Thermo Fisher Scientific (SelectScreen service)
T2 sequence (P23458 whole entry): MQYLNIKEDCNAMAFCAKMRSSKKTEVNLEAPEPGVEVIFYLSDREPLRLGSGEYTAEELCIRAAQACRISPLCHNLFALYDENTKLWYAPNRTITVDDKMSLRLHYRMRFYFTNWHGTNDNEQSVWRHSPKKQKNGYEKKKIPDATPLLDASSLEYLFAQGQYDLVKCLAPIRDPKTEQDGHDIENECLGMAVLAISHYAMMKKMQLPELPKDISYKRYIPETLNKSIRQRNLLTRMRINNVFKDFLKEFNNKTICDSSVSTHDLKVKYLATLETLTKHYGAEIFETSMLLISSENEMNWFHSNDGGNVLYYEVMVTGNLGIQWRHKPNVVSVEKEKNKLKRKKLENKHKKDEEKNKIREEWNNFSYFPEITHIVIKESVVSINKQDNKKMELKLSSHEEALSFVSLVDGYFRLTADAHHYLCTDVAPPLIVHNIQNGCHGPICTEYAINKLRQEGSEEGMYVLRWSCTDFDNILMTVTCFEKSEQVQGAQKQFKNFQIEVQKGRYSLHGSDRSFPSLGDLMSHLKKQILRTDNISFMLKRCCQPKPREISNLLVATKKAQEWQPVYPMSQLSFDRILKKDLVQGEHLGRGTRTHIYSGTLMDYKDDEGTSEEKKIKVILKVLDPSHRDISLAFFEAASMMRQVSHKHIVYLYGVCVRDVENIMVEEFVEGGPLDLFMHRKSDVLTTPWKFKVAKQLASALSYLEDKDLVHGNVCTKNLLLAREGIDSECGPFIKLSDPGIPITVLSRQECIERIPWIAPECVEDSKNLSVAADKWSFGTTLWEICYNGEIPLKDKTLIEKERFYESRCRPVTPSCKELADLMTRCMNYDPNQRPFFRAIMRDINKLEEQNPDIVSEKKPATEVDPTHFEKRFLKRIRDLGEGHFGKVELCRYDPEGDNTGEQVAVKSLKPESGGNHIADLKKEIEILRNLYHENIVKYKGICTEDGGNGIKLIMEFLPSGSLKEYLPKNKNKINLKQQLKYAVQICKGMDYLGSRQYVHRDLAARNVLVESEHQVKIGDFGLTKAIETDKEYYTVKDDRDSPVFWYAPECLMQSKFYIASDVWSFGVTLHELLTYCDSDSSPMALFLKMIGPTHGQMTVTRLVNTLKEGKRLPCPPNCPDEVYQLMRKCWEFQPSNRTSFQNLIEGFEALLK
Method in brief: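 Z-lyte FRET kinase assay with 21.2-91.5 ng JAK1 and 2 μM Tyr 06 peptide in 50 mM HEPES pH 7.0, 10 mM MgCl2, 1 h reaction before development reagent. Background without enzyme, uninhibited signal with 2% DMSO vehicle; 11-point dose-response, IC50 from 4-parameter logistic fit of emission ratio.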

Cc1nnc(-c2cnc3[nH]ccc3c2N[C@H]2C[C@@H](NS(=O)(=O)c3cccc(C#N)c3)C2)s1 [Example 75, 3-cyano-N-((1s,3s)-3-((5-(5-methyl-1,3,4-thiadiazol-2-yl)-1H-pyrrolo[2,3-b]pyridin-4-yl)amino)cyclobutyl)benzenesulfonamide]
IC50 [1]: ≤ 0.1 µM | IC50 [2]: ≤ 0.01 µM | IC50 [3]: ≤ 0.01 µM
